Test results taken from patent US5688938A, “Calcium receptor-active molecules” (priority 1995, dated 1997).

Assays:
calcium receptor = target: T1, calcium receptor (Homo sapiens, UniProt P41180); assay: Xenopus oocytes injected with human parathyroid mRNA; type: cell-based
T1 construct: Xenopus oocytes injected with poly(A)+ mRNA from human hyperplastic parathyroid tissue
T1 sequence (P41180 20-1078): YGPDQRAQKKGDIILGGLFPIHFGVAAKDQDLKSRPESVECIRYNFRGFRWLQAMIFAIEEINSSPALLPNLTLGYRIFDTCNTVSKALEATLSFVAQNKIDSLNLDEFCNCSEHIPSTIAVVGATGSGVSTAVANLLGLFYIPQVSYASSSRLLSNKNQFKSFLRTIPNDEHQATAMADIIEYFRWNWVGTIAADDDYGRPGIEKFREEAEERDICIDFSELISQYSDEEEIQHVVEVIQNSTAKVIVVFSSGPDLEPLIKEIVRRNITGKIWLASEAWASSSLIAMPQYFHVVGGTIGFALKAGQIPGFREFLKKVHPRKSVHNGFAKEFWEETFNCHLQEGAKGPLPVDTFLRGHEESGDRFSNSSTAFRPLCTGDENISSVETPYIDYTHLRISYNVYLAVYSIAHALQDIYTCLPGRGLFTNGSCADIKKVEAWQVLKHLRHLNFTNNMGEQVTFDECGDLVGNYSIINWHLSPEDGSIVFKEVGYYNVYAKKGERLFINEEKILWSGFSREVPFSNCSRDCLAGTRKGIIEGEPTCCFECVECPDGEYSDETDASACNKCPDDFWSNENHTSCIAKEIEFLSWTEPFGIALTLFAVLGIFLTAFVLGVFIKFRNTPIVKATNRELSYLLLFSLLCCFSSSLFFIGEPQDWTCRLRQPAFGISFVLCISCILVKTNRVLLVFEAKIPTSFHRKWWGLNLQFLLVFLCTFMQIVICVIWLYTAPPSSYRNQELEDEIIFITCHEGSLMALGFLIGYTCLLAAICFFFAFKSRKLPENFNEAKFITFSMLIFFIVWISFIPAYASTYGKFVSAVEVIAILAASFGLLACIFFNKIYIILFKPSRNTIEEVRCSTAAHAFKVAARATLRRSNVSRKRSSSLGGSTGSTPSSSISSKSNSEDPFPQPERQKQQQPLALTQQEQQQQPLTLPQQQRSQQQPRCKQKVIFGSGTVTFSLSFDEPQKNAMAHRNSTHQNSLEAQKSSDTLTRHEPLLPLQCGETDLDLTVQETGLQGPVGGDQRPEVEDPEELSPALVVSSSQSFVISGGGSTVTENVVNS
Protocol: Oocytes were injected with poly(A)+-enriched mRNA from human parathyroid tissue (hyperplastic glands from a case of secondary HPT).
Following incubation, an oocyte was placed into a 100-μl plastic chamber and superfused with MBS at a flow rate of 0.5 ml/min using a peristaltic pump. Test molecules or inorganic polycations were added by rapidly moving the tubing into different buffers. Recording and current passing electrodes were constructed from thin-wall capillary tubing pulled to a resistance of 1-3 Mohms and filled with 3M KCl. […] Currents were recorded directly onto a strip chart recorder.
Using this screen allows one to test for an action directly on the calcium receptor. Oocytes expressing the calcium receptor also responded to several molecules active on intact parathyroid cells when screened as follows. […] This offers rather compelling evidence showing that these molecules act on the calcium receptor or on some other protein intimately associated with its function.

net positive charge = type: physicochemical; details: Table 1; at physiological pH
[1] = target: T2, parathyroid cell calcium receptor (Bos taurus, UniProt P35384); assay: cell-based; type: cell-based
T2 sequence (P35384 21-1085 limits assumed): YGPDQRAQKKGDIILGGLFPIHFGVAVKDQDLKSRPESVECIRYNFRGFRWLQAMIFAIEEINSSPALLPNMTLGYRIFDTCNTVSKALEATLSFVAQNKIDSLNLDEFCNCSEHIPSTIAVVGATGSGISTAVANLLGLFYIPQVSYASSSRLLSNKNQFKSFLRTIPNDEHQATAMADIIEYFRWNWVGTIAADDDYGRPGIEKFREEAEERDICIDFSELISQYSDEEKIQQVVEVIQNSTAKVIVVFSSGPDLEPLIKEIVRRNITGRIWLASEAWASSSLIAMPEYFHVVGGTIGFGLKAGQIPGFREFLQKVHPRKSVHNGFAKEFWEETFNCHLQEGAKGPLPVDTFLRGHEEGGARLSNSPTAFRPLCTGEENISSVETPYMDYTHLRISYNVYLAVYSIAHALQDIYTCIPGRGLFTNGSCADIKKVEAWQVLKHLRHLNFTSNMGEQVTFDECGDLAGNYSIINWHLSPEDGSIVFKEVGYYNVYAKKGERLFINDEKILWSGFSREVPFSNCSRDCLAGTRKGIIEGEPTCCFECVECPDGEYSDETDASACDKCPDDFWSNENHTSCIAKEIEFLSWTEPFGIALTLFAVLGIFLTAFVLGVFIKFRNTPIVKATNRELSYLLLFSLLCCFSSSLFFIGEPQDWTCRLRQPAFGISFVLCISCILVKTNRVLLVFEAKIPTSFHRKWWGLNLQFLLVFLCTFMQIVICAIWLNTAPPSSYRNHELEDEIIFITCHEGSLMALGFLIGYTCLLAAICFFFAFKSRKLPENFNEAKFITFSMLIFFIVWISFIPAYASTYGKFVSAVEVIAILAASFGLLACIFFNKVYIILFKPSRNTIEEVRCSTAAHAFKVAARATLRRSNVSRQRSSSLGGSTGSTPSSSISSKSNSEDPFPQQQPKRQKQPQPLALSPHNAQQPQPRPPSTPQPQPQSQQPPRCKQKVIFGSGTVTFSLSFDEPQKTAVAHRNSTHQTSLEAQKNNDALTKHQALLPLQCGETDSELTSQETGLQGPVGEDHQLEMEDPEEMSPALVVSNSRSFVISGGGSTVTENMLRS

[2] = test system: L-type voltage-sensitive Ca^2+ channel; assay: block of extracellular Ca^2+-induced increases in [Ca^2+]i in rMTC 6-23 cells; type: cell-based, rat; details: read-out: IC50 for block of extracellular Ca^2+-induced increases in [Ca^2+]i
[3] = test system: osteoclast calcium receptor; assay: [Ca^2+]i (indo-1) in rat osteoclasts; type: cell-based; details: with or without 1 mM extracellular CaCl2
rat osteoclasts = assay: inhibition of bone resorption (pit formation on bovine cortical bone slices); type: cell-based; details: Osteoclast, 24 hours, read-out: IC50 for inhibition of bone resorption in vitro
From the text: This was done by morphometric analysis of pit formation on thin slices of bovine cortical bone using scanning electron microscopy.

bovine parathyroid cells [4] = assay: inositol phosphate formation in bovine parathyroid cells; type: cell-based
Protocol: This section describes procedures measuring inositol phosphate formation. Membrane phospholipids were labeled by incubating parathyroid cells with 4 μCi/ml ^3 H-myo-inositol for 20-24 hours. Cells were then washed and resuspended in PCB containing 0.5 mM CaCl2 and 0.1% BSA. Incubations were performed in microfuge tubes in the absence or presence of various concentrations of organic polycation for different times. Reactions were terminated by the addition of 1 ml chloroform-methanol-12N HCl (200:100:1; v/v/v). Aqueous phytic acid hydrolysate (200 μl; 25 μg phosphate/tube). The tubes were centrifuged and 600 μl of the aqueous phase was diluted into 10 ml water.
Inositol phosphates were separated by ion-exchange chromatography using AG1-X8 in either the chloride- or formate-form. When only IP3 levels were to be determined, the chloride-form was used, whereas the formate form was used to resolve the major inositol phosphates (IP3, IP2, and IP1). For determination of just IP3, the diluted sample was applied to the chloride-form column and the column was washed with 10 ml 30 mM HCl followed by 6 ml 90 mM HCl and the IP3 was eluted with 3 ml 500 mM HCl. The last eluate was diluted and counted. […] The eluted samples from the formate columns were rotary evaporated, the residues brought up in cocktail, and counted.
The isomeric forms of IP3 were evaluated by HPLC. […]

bovine parathyroid cells [5] = assay: PTH secretion from bovine parathyroid cells; type: cell-based
bovine parathyroid cells [6] = type: cell-based
Protocol: This section describes measuring cyclic AMP levels. Cells were incubated as above for PTH secretion studies and at the end of the incubation, a 0.15-ml sample was taken and transferred to 0.85 ml of hot (70° C.) water and heated at this temperature for 5-10 minutes. The tubes were subsequently frozen and thawed several times and the cellular debris sedimented by centrifugation. Portions of the supernatant were acetylated and cyclic AMP concentrations determined by radioimmunoassay.
Bovine parathyroid cells were cultured for 16 hours with or without 100 ng/ml pertussis toxin. […] Each value is the mean±SEM of three experiments.

C1CNCCNCCNCCNCCNCCN1 [Hexacyclen, 1,4,7,10,13,16-hexaaza-cyclooctadecane, reference compound]
effective concentration for mobilization of intracellular Ca^2+ in oocytes (calcium receptor): 135 µM
Net (+) Charge (net positive charge): +6
potency relative to NPS 383 ([1]; [Ca^2+]i): 7 -fold
potency relative to pentaethylenehexamine ([1]; [Ca^2+]i): 25 -fold

NCCCNCCCCNCCCNCCCN(O)CCCNC(=O)Cc1c[nH]c2cccc(O)c12 [NPS 015]
IC50 [2]: 3 µM

CC(Cc1ccccc1)NCCC(c1ccccc1)c1ccccc1 (stereo not drawn) [Prenylamine]
mobilization of [Ca^2+]i in rat osteoclasts [3]: mobilization of [Ca^2+ ]i
IC50 (rat osteoclasts): 10 µM

protamine
formation of IP3 (bovine parathyroid cells [4]): rapid (within 30 seconds) increase
inhibition of PTH secretion (bovine parathyroid cells [5]): inhibited PTH secretion to the same extent as extracellular Ca^2+
cyclic AMP (+PTx) (bovine parathyroid cells [6]): 89 ± 9 % of control
cyclic AMP (control, without pertussis toxin) (bovine parathyroid cells [6]; 10 μM isoproterenol, 2.0 mM Ca^2+, or 0.5 mM Ca^2+ with 200 μM spermine, 30 μM neomycin B or 2 μg/ml protamine, mean±SEM of three experiments): 20 ± 4 % of control
increases in [Ca^2+]i [1]: rapid and transient increases in [Ca^2+ ]i
